Reference: patent EP0734206B1, “SURFACTANTS PROVIDING ENHANCED EFFICACY AND/OR RAINFASTNESS TO PESTICIDE FORMULATIONS” (MONSANTO COMPANY, priority 1993, dated 1995)

What was measured:
[1] = tested on: Panicum maximum (guineagrass, PANMA); assay: greenhouse test of rainfastness of glyphosate formulations (Example 4); type: in vivo; conditions: 1.68 kg a.e./ha, formulation 18.4% glyphosate a.e., 7% cocoamine quat 2EO, 10.2% nonionic surfactant
Protocol: (§1) Comparative herbicidal activity with and without simulated rain was determined in greenhouse and field tests. For greenhouse tests, seeds or propagules of selected species were planted in 10.2 cm square pots of soil with added fertilizer. Temperature and relative humidity were allowed to fluctuate within limits defined for each test described in the following Examples. Plants were allowed to grow until the desired growth stage or size (defined for each test) for spraying. Pots were selected for uniformity before treatment and three replicate pots were assigned to each treatment. Spray solutions were prepared by dilution or dissolution of concentrate herbicide formulations in water. When desired to test "tank mix" application of surfactant compositions, these were added to the spray solution at the required concentration. Spraying was performed with a device which simulates agricultural field spraying equipment, delivering a fine spray at a pressure of about 207 kilopascals. Speed of travel of the spray device over the plants was adjusted to give the desired spray volume (defined for each test). For logistical reasons, all three replicates of each treatment were sprayed together. "Rain" treatments were applied by repeated passage of a coarse spray of water over the plants at some desired period of time after herbicide spraying. The amount and duration of "rain" were noted. After spraying and "rain" treatment, the plants were returned to the greenhouse. Herbicidal efficacy was evaluated by visual assessment at one or more selected time periods after treatment and recorded as "percent control" on an arbitrary scale by comparison with untreated plants. On this scale 0 means no visible effect and 100 means death of all plants. In the Examples, percent control values given are the means of three replicates.
Aqueous concentrate formulations of the isopropylamine salt of glyphosate were prepared at a glyphosate a.e. loading of 18.4% (equivalent to about 200 g a.e./liter). All contained 7% cocoamine quat 2EO and 10.2% nonionic surfactant. Formulations of the present invention contained as the nonionic one of several secondary alcohol ethoxylates; other formulations were made containing nonionics such as Silwet L-77, 2,4,7,9-tetramethyl-5-decyne-4,7-diol 10EO, nonylphenol 8EO, 10EO and 12EO and C12-15 primary alcohol 7EO, 9EO and 12EO. These formulations were tested for rainfastness in a greenhouse test.
The test species was Panicum maximum (guineagrass, PANMA). All glyphosate formulations were applied at 1.68 kg a.e./ha (1.5 lb a.e./acre) in a spray volume of 185 l/ha (20 gallons/acre). Commercial Roundup herbicide was included as a standard. Simulated rain was applied in the amount of 6 mm over a period of 15 minutes, beginning 1 hour after glyphosate treatment.

[2] = tested on: Elymus repens (quackgrass, AGRRE); assay: greenhouse test of rainfastness of glyphosate formulations (Example 5); type: in vivo; conditions: formulation 31% glyphosate a.e., 7.5% cocoamine quat 2EO, 8.6% nonionic surfactant
Protocol: as §1
Aqueous concentrate formulations of the isopropylamine salt of glyphosate were prepared at a glyphosate a.e. loading of 31% (equivalent to about 360 g a.e./liter). All contained 7.5% cocoamine quat 2EO and 8.6% nonionic surfactant. Formulations of the present invention contained as the nonionic C11-15 secondary alcohol 9EO or C12 branched secondary alcohol 10EO; for comparison, other formulations were made containing nonionics disclosed as rainfastness aids in the prior art such as 2,4,7,9-tetramethyl-5-decyne-4,7-diol 10EO or nonylphenol 8EO. These formulations were tested for rainfastness in a greenhouse test.
The test species was Elymus repens (quackgrass, AGRRE). All glyphosate formulations were applied at both 0.84 and 1.68 kg a.e./ha (0.75 and 1.5 lb a.e./acre) in a spray volume of 20 gallons/acre (187 l/ha. Commercial Roundup herbicide was included as a standard. Simulated rain was applied in the amount of 6 mm over a period of 15 minutes, beginning 1 hour after glyphosate treatment. Data on percent inhibition without and with "rain" are presented in Table 6. Table 6

barley cv. Pennco = assay: short-term whole plant assay, barley regrowth after glyphosate treatment and trimming (Examples 7-8); type: in vivo; conditions: T/Am 5 0, S/Al 9 0 % w/v, 7 days after treatment
Text: In Examples 7 and 8, a short-term whole plant assay was used to evaluate relative efficacy of aqueous glyphosate compositions containing tallowamine 5EO and C11-15 secondary alcohol 9EO in different concentrations and proportions relative to one another.
Equal volumes of uniformly sized seeds (20-25 in number) of barley cv. Pennco were sown in a growing medium consisting of a 3:2:1 sand/soil/peat mixture in 4 inch square plastic pots. Pots were placed in a controlled environment growth chamber providing a 14 hour photoperiod, day and night temperatures of 78°F and 66°F respectively, and a relative humidity in the range from 30% to 50%. Light was provided by a combination of metal halide and sodium vapor lamps. All pots were bottom watered at 1200 hr on the first day, resulting in rapid saturation of the growing medium. Seedling emergence occurred on the third and fourth days. On the seventh day, all pots were fertilized by bottom watering with a Peters 20-20-20 fertilizer containing 475 ppm soluble nitrogen.
On the eighth day, pots were sorted into 6 replicate blocks according to plant size. Treatments, including no-treatment controls, were randomly assigned within each block, one treatment per pot.
Plants were treated with glyphosate compositions in rapid succession between 0830 hr and 0900 hr on the ninth day, when average plant height was 13-15 cm and the second leaf was just beginning to elongate. Compositions were applied using a calibrated single-nozzle track sprayer delivering 187 l/ha through a Teejet 8001E nozzle at 276 kilopascals. Plants were removed from the growth chamber immediately before treatment and returned to the same growth chamber immediately after treatment. Pots were spatially arranged in a randomized complete block experimental design. At 6 hours after treatment plants in all pots were trimmed by cutting to 20 mm above the top edge of the pot. This removed approximately 90% of the barley leaf area. Pots were bottom watered once daily for the remainder of the study. Data collection took place on the sixteenth day, 7 days after treatment.
Average height of barley regrowth in each pot was measured to the nearest 5 mm increment, from the earlier cutting height 20 mm above the edge of the pot. All plants in each pot were then cut at 20 mm above the edge of the pot and total fresh weight was recorded.
All compositions in this Example contained glyphosate as the isopropylamine salt at a concentration calculated to deliver 0.42 kg a.e./ha. Polyoxyethylene tallowamine 5EO (T/Am 5) concentration was varied independently of C11-15 secondary alcohol 9EO (S/Al 9) concentration as will be clear from the tables below. […]

[3] = cloud point of aqueous concentrate glyphosate formulations (Examples 2 and 3); type: physicochemical; conditions: 31% glyphosate a.e. as isopropylamine salt
Protocol: Aqueous concentrate formulations of the isopropylamine salt of glyphosate were prepared at a glyphosate a.e. loading of 31% (equivalent to about 360 g a.e./liter). All contained 3.5% cocoamine quat 2EO. Secondary alcohol ethoxylates of the invention were included at a range of levels and cloud point of the formulation was determined. To measure cloud point, a sample of each formulation in a test tube was heated in a water bath until it became cloudy. The test tube was then removed from the water bath and the sample stirred with a thermometer until it became clear. The temperature at which the sample became clear was recorded as the cloud point of the formulation.
Aqueous concentrate formulations of the isopropylamine salt of glyphosate were prepared at the same glyphosate a.e. loading as in Example 2, but containing higher levels of cocoamine quat 2EO. Secondary alcohol ethoxylates of the invention were included at a range of levels and cloud point of the formulation was determined by the same procedure as in Example 2.

[4] = Rain 6 mm over 15 minutes, 1 hour after treatment
[5] = 0.84 kg a.e./ha, Rain 6 mm over 15 minutes, 1 hour after treatment
[6] = 1.68 kg a.e./ha, Rain 6 mm over 15 minutes, 1 hour after treatment
[7] = averaged over glyphosate 0.07, 0.14 and 0.28 kg a.e./ha
[8] = 4% secondary alcohol, 3.5% cocoamine quat 2EO
[9] = 5% secondary alcohol, 3.5% cocoamine quat 2EO
[10] = 5% secondary alcohol, 5% cocoamine quat 2EO
[11] = 6% secondary alcohol, 3.5% cocoamine quat 2EO
[12] = 6% secondary alcohol, 5% cocoamine quat 2EO
[13] = 7% secondary alcohol, 3.5% cocoamine quat 2EO
[14] = 7% secondary alcohol, 5% cocoamine quat 2EO
[15] = 8% secondary alcohol, 5% cocoamine quat 2EO

Compound	Percent inhibition of guineagrass 15 DAT ([1]; No rain) [%]	Percent inhibition of guineagrass 15 DAT [1, 4] [%]	Percent inhibition of quackgrass 28 DAT ([2]; 0.84 kg a.e./ha, No rain) [%]	Percent inhibition of quackgrass 28 DAT [2, 5] [%]	Percent inhibition of quackgrass 28 DAT ([2]; 1.68 kg a.e./ha, No rain) [%]	Percent inhibition of quackgrass 28 DAT [2, 6] [%]	other results
2,4,7,9-tetramethyl-5-decyne-4,7-diol 10EO [Adjuvant 2]	98	94	94	78	98	94	
O=C(O)CNCP(=O)(O)O [glyphosate, N-phosphonomethylglycine]							Mean fresh weight of regrowth (barley cv. Pennco; [7]): 2.83 g; Mean height of regrowth (barley cv. Pennco; [7]): 171 mm; Mean fresh weight of regrowth (barley cv. Pennco; glyphosate 0.42 kg a.e./ha): 1.92 g; Mean height of regrowth (barley cv. Pennco; glyphosate 0.42 kg a.e./ha): 148 mm
C12 branched secondary alcohol 6EO [C12 branched 6EO]	100	66					Cloud points [3, 8]: >95 °C; Cloud points [3, 9]: >95 °C; Cloud points [3, 10]: >95 °C; Cloud points [3, 11]: <25 °C; Cloud points [3, 12]: <25 °C; Cloud points [3, 13]: <25 °C; Cloud points [3, 14]: <25 °C; Cloud points [3, 15]: <25 °C
C12 branched secondary alcohol 10EO [C12 branched 10EO]	100	98	94	84	100	88	Cloud points [3, 8]: >95 °C; Cloud points [3, 9]: 80 °C; Cloud points [3, 10]: 80 °C; Cloud points [3, 11]: 72 °C; Cloud points [3, 12]: 68 °C; Cloud points [3, 13]: 65 °C; Cloud points [3, 14]: 65 °C; Cloud points [3, 15]: 61 °C
nonylphenol 8EO	100	97	97	83	98	79	
nonylphenol 10EO	100	81					
nonylphenol 12EO	100	63					
